In ChEMBL document CHEMBL5370554, “Discovery of a first-in-class Aurora A covalent inhibitor for the treatment of triple negative breast cancer” (Eur J Med Chem, 2023) one finds IC50, inhibition in vivo and Activity data, which are given here for 17 compounds.

A word on the IC50: it is the point on the concentration scale where inhibition reaches its midpoint.

In one data set the target is T1, Aurora kinase A (Homo sapiens, UniProt O14965).
T1 sequence (O14965 whole entry): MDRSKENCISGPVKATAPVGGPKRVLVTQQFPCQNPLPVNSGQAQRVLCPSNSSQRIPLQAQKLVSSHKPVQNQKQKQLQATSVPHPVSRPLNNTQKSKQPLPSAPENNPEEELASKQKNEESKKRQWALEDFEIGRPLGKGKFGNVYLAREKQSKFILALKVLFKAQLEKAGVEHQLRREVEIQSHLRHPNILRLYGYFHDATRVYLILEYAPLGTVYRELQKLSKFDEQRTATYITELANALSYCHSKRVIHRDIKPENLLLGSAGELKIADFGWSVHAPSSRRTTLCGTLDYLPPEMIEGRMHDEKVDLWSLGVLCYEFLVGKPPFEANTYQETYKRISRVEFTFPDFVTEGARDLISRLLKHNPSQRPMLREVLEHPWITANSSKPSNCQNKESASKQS
The data set is described as follows: Inhibition of recombinant human Aurora A (1 to 403 residues) expressed in Escherichia coli using FAM-labeled peptide as substrate preincubated for 10 mins followed by substrate addition and measured after 20 mins in presence of ATP by HTRF assay. (TR-FRET usually uses a lanthanide donor and a delayed reading to cut background.)

Data set [1] concerns MDA-MB-231. Briefly: Antiproliferative activity against human MDA-MB-231 cells assessed as inhibition of cell proliferation incubated for 48 hrs by CCK-8 assay. As to conditions: MDA-MB-231, 48 h. The data set is classed as functional, cell-based. Background: Formazan colour is commonly taken as a measure of viable cells.
In the next data set the test system is SJSA-1. Briefly: Antiproliferative activity against human SJSA-1 cells assessed as inhibition of cell proliferation incubated for 48 hrs by CCK-8 assay. The format is functional, cell-based. The note with it: SJSA-1, 48 h.
The subject of another data set is HeLa. Briefly: Antiproliferative activity against human HeLa cells assessed as inhibition of cell proliferation incubated for 48 hrs by CCK-8 assay. The format is functional, cell-based.
The subject of the next data set is A549. The data set is described as follows: Antiproliferative activity against human A549 cells assessed as inhibition of cell proliferation incubated for 48 hrs by CCK-8 assay. The data set is classed as functional, cell-based. As to conditions: A549, 48 h.
Data set [2] can be described thus: Cytotoxicity against human L02 cells assessed as inhibition of cell proliferation incubated for 48 hrs by CCK-8 assay. The format is toxicity, cell-based.
Data set [3] concerns MDA-MB-231. The data set is described as follows: Antitumor activity against human MDA-MB-231 cells xenografted in BALB/c nude mouse assessed as tumor growth inhibition at 30 mg/kg,ip every 2days for 20 days. The format is functional. As to conditions: MDA-MB-231, 480 h, time 20 day, read-out: TGI. For orientation: A xenograft is tissue or cells of one species grown in another, often human tumour cells in immunodeficient mice.

The nature of data set [4]: Toxicity in BALB/c nude mouse xenografted with human MDA-MB-231 cells assessed as body weight change at 30 mg/kg,ip every 2days for 20 days. The data set is classed as organism-based. The note with it: in vivo, 480 h, time 20 day.

With `C=CC(=O)Nc1cccc(-c2nc(Nc3cc(C)[nH]n3)c3ccc(N4CCN(C)CC4)cc3n2)c1`, the IC50 on Aurora kinase A was found to be 1.5 nM; with MDA-MB-231 [1] it was 2600 nM; with SJSA-1, 6.8 µM; with HeLa, 4.22 µM; with A549 it was 3270 nM.
In the case of `Cc1cc(Nc2nc(-c3ccc(OS(=O)(=O)F)cc3)nc3cc(N4CCN(C)CC4)ccc23)n[nH]1`, the IC50 on Aurora kinase A came to 25 nM; with MDA-MB-231 [1], 4340 nM; in the data set on SJSA-1, 23.1 µM; with HeLa, 4.87 µM; in the data set on A549, 1150 nM.
As to `Cc1cc(Nc2nc(-c3ccccc3)nc3cc(N4CCN(C)CC4)ccc23)n[nH]1`, the IC50 was 1440 nM in the data set on MDA-MB-231 [1], 18.8 µM in the data set with SJSA-1, 5.5 µM in the data set with HeLa and 1440 nM in the data set with A549. In data set [2], the IC50 at 48 h worked out at 2.74 µM.
`C=CC(=O)Nc1cccc(-c2nc(Nc3cc(C)[nH]n3)c3ccc(N4CCOCC4)cc3n2)c1`: the IC50 on Aurora kinase A stood at 1.7 nM; with MDA-MB-231 [1], 5900 nM; with SJSA-1, 12.5 µM; with HeLa, 2.23 µM; in the data set with A549, 850 nM.
Consider `Cc1cc(Nc2nc(-c3ccc(N)cc3)nc3cc(N4CCOCC4)ccc23)n[nH]1`, for which the IC50 in the data set with MDA-MB-231 [1] came to 4390 nM; in the data set on SJSA-1, 6.54 µM; in the data set on HeLa, 7.3 µM; in the data set on A549 it was 1640 nM.
On to `Cc1cc(Nc2nc(-c3ccccc3O)nc3cc(N4CCN(C)CC4)ccc23)n[nH]1`, for which the IC50 at Aurora kinase A came to 5.5 nM; in the data set on MDA-MB-231 [1], 2430 nM; in the data set on SJSA-1, 11.6 µM; in the data set with HeLa it was 3.8 µM; in the data set with A549, 2690 nM.
As to `Cc1cc(Nc2nc(-c3cccc(O)c3)nc3cc(N4CCN(C)CC4)ccc23)n[nH]1`, the IC50 on Aurora kinase A turned out to be 2 nM; with MDA-MB-231 [1], 1490 nM; with SJSA-1 it was 10.7 µM; in the data set on HeLa it was 6.8 µM; with A549, 2150 nM.
For the compound `Cc1cc(Nc2nc(-c3ccc(N)cc3)nc3cc(N4CCN(C)CC4)ccc23)n[nH]1`, the half-inhibitory concentration (IC50) is 3.1 nM at Aurora kinase A; 640 nM with MDA-MB-231 [1]; 2.82 µM in the data set on SJSA-1; 4.88 µM in the data set with HeLa; 4120 nM in the data set with A549.
On the same counts, the results for `Cc1cc(Nc2nc(-c3ccc(O)cc3)nc3cc(N4CCN(C)CC4)ccc23)n[nH]1` are 2.5 nM, 1340 nM, 17.4 µM, 9.68 µM and 4740 nM.
On the same counts, the results for `C=CC(=O)Nc1ccccc1-c1nc(Nc2cc(C)[nH]n2)c2ccc(N3CCN(C)CC3)cc2n1` are 45 nM, 13400 nM, 13.9 µM, 41.2 µM and 19700 nM.
As to `Cc1cc(Nc2cc(N3CCN(C)CC3)nc(/C=C/c3ccccc3)n2)n[nH]1` [ENMD-2076], the inhibition in vivo at 30 mg/kg in the data set on MDA-MB-231 [3] came to 30.9%. Moreover, the concentration for half-maximal inhibition (IC50) is 5210 nM with MDA-MB-231 [1], 56.7 µM with SJSA-1, 9.02 µM in the data set with HeLa and 2650 nM in the data set with A549. For the same compound, the IC50 at 48 h in data set [2] worked out at 42.6 µM. For the same compound, the Activity entry in data set [4] is recorded as “Non-Toxic”.
For `Cc1cc(Nc2nc(-c3cccc(N)c3)nc3cc(N4CCN(C)CC4)ccc23)n[nH]1`, the IC50 at Aurora kinase A was 2.1 nM; with MDA-MB-231 [1], 1750 nM; in the data set on SJSA-1 it was 3.67 µM; with HeLa it was 6.77 µM; in the data set on A549, 2060 nM.
On to `CCC(=O)Nc1ccc(-c2nc(Nc3cc(C)[nH]n3)c3ccc(N4CCN(C)CC4)cc3n2)cc1`, for which the IC50 is 5 nM on Aurora kinase A; 2200 nM in the data set on MDA-MB-231 [1]; 28.6 µM in the data set on SJSA-1; 17.9 µM with HeLa; 1180 nM in the data set on A549. Also, the 50% inhibitory concentration (IC50) at 48 h in data set [2] worked out at 24.7 µM.
On to `C=CC(=O)Nc1cc(-c2nc(Nc3cc(C)[nH]n3)c3ccc(N4CCN(C)CC4)cc3n2)ccc1C`, for which the IC50 at Aurora kinase A amounted to 1.1 nM; with MDA-MB-231 [1], 1660 nM; with SJSA-1, 23.6 µM; with HeLa it was 9.13 µM; with A549, 310 nM. The IC50 at 48 h in data set [2] is 34.2 µM.
With `C=CC(=O)Nc1ccc(-c2nc(Nc3cc(C)[nH]n3)c3ccc(N4CCOCC4)cc3n2)cc1`, the IC50 is 2.7 nM on Aurora kinase A; 2660 nM in the data set with MDA-MB-231 [1]; 14.8 µM with SJSA-1; 5.51 µM in the data set with HeLa; 260 nM in the data set on A549. In addition, the 50% inhibitory concentration (IC50) at 48 h in data set [2] amounted to 43.2 µM.
Take `Cc1cc(Nc2nc(-c3cccc(N)c3)nc3cc(N4CCOCC4)ccc23)n[nH]1`: the IC50 in the data set on MDA-MB-231 [1] is 6960 nM; with SJSA-1, 12.5 µM; in the data set on HeLa, 7.52 µM; in the data set with A549 it was 1770 nM.
For the compound `Cc1cc(Nc2nc(-c3ccccc3N)nc3cc(N4CCN(C)CC4)ccc23)n[nH]1`, the IC50 on Aurora kinase A turned out to be 11 nM; with MDA-MB-231 [1], 760 nM; in the data set on SJSA-1, 2.66 µM; with HeLa, 8.3 µM; in the data set on A549, 1130 nM.
